Experimental data published in ChEMBL document CHEMBL5625206, “Design, synthesis, and evaluation of novel pleuromutilin aryl acrylate derivatives as promising broad-spectrum antibiotics especially for combatting multi-drug resistant gram-negative bacteria” (Eur J Med Chem, 2023).
Values after ≈ are worked out from the molar mass of the structure shown. Active and inactive are the calls of the source. The rule behind the calls is not given here.

Key:
[1] = tested on: Staphylococcus epidermidis; assay: Antibacterial activity against Staphylococcus epidermidis ATCC 12228 assessed as bacterial growth inhibition incubated for 24 hrs by CLSI based broth microdilution method; type: functional
Escherichia coli [2] = assay: Antibacterial activity against Escherichia coli ATCC 25922 assessed as bacterial growth inhibition incubated for 24 hrs by CLSI based broth microdilution method; type: functional
Staphylococcus aureus [3] = assay: Antibacterial activity against methicillin-resistant Staphylococcus aureus 575 clinical isolate assessed as bacterial growth inhibition incubated for 24 hrs by CLSI based broth microdilution method; type: functional
Enterococcus = assay: Antibacterial activity against vancomycin-resistant Enterococcus 80 clinical isolate assessed as bacterial growth inhibition incubated for 24 hrs by CLSI based broth microdilution method; type: functional
Pseudomonas aeruginosa = assay: Antibacterial activity against multidrug-resistant Pseudomonas aeruginosa 126 clinical isolate assessed as bacterial growth inhibition incubated for 24 hrs by CLSI based broth microdilution method; type: functional
[4] = tested on: Mesomycoplasma hyopneumoniae; assay: Anti-mycoplasma activity against Mycoplasma hyopneumoniae LH-NCTC10130 assessed as bacterial growth inhibition incubated for 7 days; type: functional; conditions: Mesomycoplasma hyopneumoniae, LH-NCTC10130, 168 h; time 7 day; read-out: MIC
Staphylococcus aureus [5] = assay: Inhibition of biofilm formation of methicillin-resistant Staphylococcus aureus ATCC 33591 at 8 times MIC incubated for 24 hrs by crystal violet staining based analysis relative to control; type: functional
Staphylococcus aureus [6] = assay: Inhibition of biofilm formation of methicillin-resistant Staphylococcus aureus ATCC 33591 incubated for 24 hrs by crystal violet staining based analysis; type: functional, organism-based
Escherichia coli [7] = assay: Induction of cell damage in Escherichia coli ATCC 25922 assessed as decrease in intracellular ATP concentration at MIC incubated for 30 mins by fluorescence based analysis relative to control; type: functional; set-up: scale not given: the % may be the effect or the level left; conditions: 0.5 h
Escherichia coli [8] = assay: Induction of cell damage in Escherichia coli ATCC 25922 assessed as fold increase in extracellular ATP concentration at 2 times MIC incubated for 30 mins by fluorescence based analysis relative to control; type: functional; conditions: 0.5 h
Escherichia coli [9] = assay: Induction of cell damage in Escherichia coli ATCC 25922 assessed as intracellular pH at 2 times MIC incubated for 30 mins by fluorescence based analysis (reference value: 6.05 +/- 0.10); type: functional; conditions: 0.5 h
Escherichia coli [10] = assay: Depolarization of cell membrane in Escherichia coli ATCC 25922 by DiBAC4(3) probe based analysis; type: functional, organism-based
Escherichia coli [11] = assay: Disruption of cell membrane integrity in Escherichia coli ATCC 25922 assessed as rough cell surface at MIC incubated for 4 hrs by FESEM analysis; type: functional, organism-based
[12] = Toxicity in neutropenic Kunming mouse model infected with methicillin-resistant Staphylococcus aureus ATCC 33591 assessed as survival rate at 5 mg/kg, ip measured after 7 days relative to control; type: organism-based; conditions: in vivo, 168 h, time 7 day
Staphylococcus aureus [13] = assay: Antibacterial activity against methicillin-resistant Staphylococcus aureus ATCC 33591 infected in neutropenic Kunming mouse model assessed as reduction in infection-induced inflammatory cell inflammation in liver at 10 mg/kg, ip measured after 7 days; type: functional, organism-based; conditions: time 7.0 day
Staphylococcus aureus [14] = assay: Antibacterial activity against methicillin-resistant Staphylococcus aureus ATCC 33591 infected in neutropenic Kunming mouse model assessed as restoration of infection- induced change in cell morphology in kidney at 20 mg/kg, ip measured after 7 days; type: functional, organism-based; conditions: time 7.0 day
Staphylococcus aureus [15] = assay: Antibacterial activity against methicillin-resistant Staphylococcus aureus ATCC 33591 infected in neutropenic Kunming mouse model assessed as restoration of infection- induced change in cell morphology in liver at 20 mg/kg, ip measured after 7 days; type: functional, organism-based; conditions: time 7.0 day
[16] = Toxicity in fasted Sprague-Dawley rat assessed as mortality rate at 100 mg/kg, IG measured for 14 days; type: organism-based; conditions: in vivo, po, time 14 day
[17] = Toxicity in fasted Sprague-Dawley rat assessed as mortality rate at 224 mg/kg, IG measured for 14 days; type: organism-based; conditions: in vivo, po, time 14 day
[18] = Toxicity in fasted male Sprague-Dawley rat assessed as body weight at 148 mg/kg, IG measured on same day (reference value: 212.7 +/- 13.2 g); type: organism-based; conditions: in vivo, po
[19] = Toxicity in fasted male Sprague-Dawley rat assessed as body weight at 331 mg/kg, IG measured on same day (reference value: 212.7 +/- 13.2 g); type: organism-based; conditions: in vivo, po
[20] = Toxicity in fasted female Sprague-Dawley rat assessed as body weight at 224 mg/kg, IG measured after 7 days (reference value: 188.2 +/- 9.2 g); type: organism-based; conditions: in vivo, po, 168 h, time 7 day
[21] = Toxicity in fasted male Sprague-Dawley rat assessed as body weight at 500 mg/kg, IG measured after 7 days (reference value: 260.5 +/- 12.7 g); type: organism-based; conditions: in vivo, po, 168 h, time 7 day
[22] = Toxicity in fasted male Sprague-Dawley rat assessed as body weight at 148 mg/kg, IG measured after 14 days (reference value: 311.2 +/- 13.6 g); type: organism-based; conditions: in vivo, po, 336 h, time 14 day
[23] = Toxicity in fasted female Sprague-Dawley rat assessed as body weight at 224 mg/kg, IG measured after 14 days (reference value: 214.3 +/- 9.8 g); type: organism-based; conditions: in vivo, po, 336 h, time 14 day
[24] = Toxicity in fasted male Sprague-Dawley rat assessed as body weight at 331 mg/kg, IG measured after 14 days (reference value: 311.2 +/- 13.6 g); type: organism-based; conditions: in vivo, po, 336 h, time 14 day
[25] = Toxicity in fasted female Sprague-Dawley rat assessed as body weight at 331 mg/kg, IG measured after 14 days (reference value: 214.3 +/- 9.8 g); type: organism-based; conditions: in vivo, po, 336 h, time 14 day
[26] = Toxicity in fasted female Sprague-Dawley rat assessed as animal growth rate at 331 mg/kg, IG measured for 14 days (reference value: 29.85 +/- 4.97 g); type: organism-based; conditions: in vivo, po, 336 h, time 14 day
[27] = Toxicity in fasted male Sprague-Dawley rat assessed as animal growth rate at 500 mg/kg, IG measured for 14 days (reference value: 46.53 +/- 3.19 g); type: organism-based; conditions: in vivo, po, 336 h, time 14 day
[28] = Toxicity in fasted female Sprague-Dawley rat assessed as relative liver weight ratio at 100 mg/kg, IG measured for 14 days (reference value: 3.199 +/- 0.062); type: organism-based; conditions: in vivo, po, 336 h, time 14 day
[29] = Toxicity in fasted male Sprague-Dawley rat assessed as relative liver weight ratio at 331 mg/kg, IG measured for 14 days (reference value: 3.616 +/- 0.286); type: organism-based; conditions: in vivo, po, 336 h, time 14 day
[30] = Toxicity in fasted male Sprague-Dawley rat assessed as relative kidney weight ratio at 100 mg/kg, IG measured for 14 days (reference value: 0.820 +/- 0.072); type: organism-based; conditions: in vivo, po, 336 h, time 14 day
[31] = Toxicity in fasted male Sprague-Dawley rat assessed as relative heart weight ratio at 148 mg/kg, IG measured for 14 days (reference value: 0.396 +/- 0.043); type: organism-based; conditions: in vivo, po, 336 h, time 14 day
[32] = Toxicity in fasted male Sprague-Dawley rat assessed as relative spleen weight ratio at 500 mg/kg, IG measured for 14 days (reference value: 0.246 +/- 0.037); type: organism-based; conditions: in vivo, po, 336 h, time 14 day
[33] = Toxicity in fasted male Sprague-Dawley rat assessed as relative testis weight ratio at 100 mg/kg, IG measured for 14 days (reference value: 0.993 +/- 0.052); type: organism-based; conditions: in vivo, po, 336 h, time 14 day
Staphylococcus aureus [34] = assay: Induction of extracellular electrical conductivity in methicillin-resistant Staphylococcus aureus ATCC 33591 at MIC incubated for 8 hrs relative to control

**Q.** With `C=C[C@]1(C)C[C@@H](OC(=O)COC(=O)/C=C/c2ccc(N(C)C)cc2)[C@]2(C)[C@H](C)CC[C@]3(CCC(=O)[C@H]32)[C@@H](C)[C@@H]1O` as the molecule, how does the MIC [1] read?
**A.** 1 µg/mL (≈ 1.81 µM)

**Q.** What about the MIC (Escherichia coli [2]) of the same molecule?
**A.** 16 µg/mL (≈ 29 µM)

**Q.** What about the MIC (Staphylococcus aureus [3]) of the same molecule?
**A.** 8 µg/mL (≈ 14.5 µM)

**Q.** And the MIC (Enterococcus)?
**A.** 4 µg/mL (≈ 7.25 µM)

**Q.** What about the MIC (Pseudomonas aeruginosa) of the same molecule?
**A.** 32 µg/mL (≈ 58 µM)

**Q.** And the MIC [4]?
**A.** 0.002 µg/mL (≈ 0.00363 µM)

**Q.** What about the “inhibition (INH)” value (Staphylococcus aureus [5]) of the same molecule?
**A.** 97.64%

**Q.** And the inhibition (Staphylococcus aureus [6])?
**A.** Dose-Dependent Effect

**Q.** What about the Activity (Escherichia coli [7]) of the same molecule?
**A.** 50.75%

**Q.** And the “fold change (FC)” value (Escherichia coli [8])?
**A.** 5.35

**Q.** And the pH (Escherichia coli [9])?
**A.** 3.23

**Q.** What about the Activity (Escherichia coli [10]) of the same molecule?
**A.** Dose-Dependent Effect

**Q.** And the Activity (Escherichia coli [11])?
**A.** Active

**Q.** And the Survival [12]?
**A.** 30%

**Q.** And the Activity (Staphylococcus aureus [13])?
**A.** inactive

**Q.** And the Activity (Staphylococcus aureus [14])?
**A.** Active

**Q.** And the Activity (Staphylococcus aureus [15])?
**A.** Active

**Q.** And the mortality at 336 h [16]?
**A.** 0%

**Q.** What about the mortality at 336 h [17] of the same molecule?
**A.** 0%

**Q.** What about the Activity [18] of the same molecule?
**A.** 208.6 g

**Q.** What about the Activity [19] of the same molecule?
**A.** 217.4 g

**Q.** And the Activity [20]?
**A.** 191.2 g

**Q.** And the Activity [21]?
**A.** 251.3 g

**Q.** What about the Activity [22] of the same molecule?
**A.** 303.6 g

**Q.** And the Activity [23]?
**A.** 217.4 g

**Q.** And the Activity [24]?
**A.** 304.9 g

**Q.** What about the Activity [25] of the same molecule?
**A.** 218.7 g

**Q.** And the Activity [26]?
**A.** 27.6%

**Q.** What about the Activity [27] of the same molecule?
**A.** 43.65%

**Q.** What about the Ratio [28] of the same molecule?
**A.** 3.195

**Q.** What about the Ratio [29] of the same molecule?
**A.** 3.528

**Q.** And the Ratio [30]?
**A.** 0.822

**Q.** What about the Ratio [31] of the same molecule?
**A.** 0.379

**Q.** And the Ratio [32]?
**A.** 0.209

**Q.** What about the Ratio [33] of the same molecule?
**A.** 1.048

**Q.** And the Activity (Staphylococcus aureus [34])?
**A.** 14.9%
